Results published in patent publication US20090111177A1, “Maintenance of Embryonic Stem Cells by the GSK-3 Inhibitor 6-Bromoindirubin-3'-Oxime” (THE ROCKEFELLER UNIVERSITY, priority 2003, published 2009).

Columns and labels:
[1] = system: Oct-3/4 and Nanog transcripts; assay: Northern analysis of HESCs; format: cell-based, human; settings: 7 d
Description: Northern analysis. Total RNA was isolated from cells by using Qiashredder and RNAeasy mini kit (Qiagen). The extracted RNA sample was quantified by UV spectrophotometer, and qualified by the RNA Nano Lab chip (Agilent Technologies). Ten μg of total RNA was electrophoresed on 1% agarose/formaldehyde gel and transferred onto a nylon membrane (Stratagene). Probes specific for human Oct-4 and human Nanog were prepared by RT-PCR using gene specific primer pairs (shown below) and the template cDNA generated from undifferentiated H1 cells, and radio-labeled with ^32P-dCTP by Prime-it probe labeling kit (Stratagene). The membrane was hybridized with the labeled probe using Perfecthybri (Sigma) and subjected to detection by Phosphor Imager (Amersham Biosciences).

Rex-1 promoter [2] = assay: Rex-1 luciferase reporter assay in CJ7 cells; format: cell-based, mouse
From the text: Nat Biotechnol 20, 87-90), a small fragment containing the TCF binding sites and the cFos promoter in pTopFlash was excised by XbaI digestion, and cloned into pcDNA3-Venus in which Venus was introduced into the multiple cloning site between BamHI and EcoRI of the pcDNA3 vector (Invitrogen) whose CMV promoter was eliminated by BglII and HindIII digestion. […] To generate the Rex-1-Venus reporter construct, the Rex-1 promoter region was cloned into pcDNA3-Venus.
(§1) Luciferase assay. […] Test compounds were added 24 hrs after transfection. Following incubation for 24 hrs, cells were harvested, and analyzed by the dual luciferase reporter assay system (Promega) using Lumat (Berthold Technologies). Each value was standardized by Renilla luciferase activity.

Oct-3/4 = Oct-3/4 immunocytochemistry in HESCs; format: cell-based, human
Description: Cell culture. Human embryonic stem cells (HESCs) lines were provided by WiCell Research Institute (H1 line)^5 and BresaGen Inc. (BGN1 and BGN2 lines). H1 cells were cultivated on irradiated mouse embryonic fibroblasts (MEFs) in medium consisting of 80% DMEM/F12 medium, 20% knockout serum replacement (KSR), 1 mM L-glutamine, 1% non-essential amino acids, 0.1 mM β-mercaptoethanol, and 4 ng/ml basic FGF (all from Invitrogen). […] Subsequently, HESCs were cultured on Matrigel (BD biosciences) in medium conditioned by MEFs, and passaged several times until colonies became free from contaminating MEFs as described before^9.
Immunofluorescence. Cells were fixed in 4% paraformaldehyde for 20 min at room temperature and incubated overnight at 4° C. with primary antibodies against Oct-4 (BD Biosciences), β-catenin (BD Biosciences), Tuj-1 (BAbCO), cytokeratin (Sigma), glial fibrillary acidic protein, GFAP, (Dako), smooth muscle actin (Research Diagnostics Inc), α-fetoprotein (α-FP, Cell Sciences) and Tromal (Developmental Studies Hybridoma Bank). For nuclear localization analysis, the fixed samples were subjected to fluorescent digital confocal imaging analysis using a Zeiss LSM 510 confocal microscope (Carl Zeiss). For mouse embryonic tissue sections, mid gestation embryos were fixed in 4% paraformaldehyde followed by paraffin embedding and tissue sectioning. After deparaffinization, tissue sections were incubated with a GFP-specific antibody (Molecular Probe) at 4° C. overnight. Antigens were localized by using goat anti-mouse IgG conjugated to Cy3 or goat anti-rabbit IgG conjugated to Cy2 (Zymed laboratories). For the quantitative image analysis, fluorescent images from triplicate samples were taken by the Discovery1 system (Universal Imaging Corporation). The fluorescent objects were selected by the threshold function and evaluated in five regions of each well by quantification of pixel intensities and the object size by using MetaMorph software (Universal Imaging Corporation).

Rex-1 promoter [3] = assay: Rex-1 YFP reporter line CJRex-Y (imaging / FACS); format: cell-based, mouse; settings: CJRex-Y cells, 5 d
Description: Generation of stable mouse ES lines. CJ7 ES cells were transfected with pRex-1-Venus, pTY or pCAG-HygEGFP by using Lipofectamine 2000 (Invitrogen) followed by G418 (Invitrogen) selection at 200 μg/ml (for CJRex-Y or CJ-TY) or hygromycine (Invitrogen) selection at 600 μg/ml (for CJ-GFP). Two weeks after the drug selection, a number of single colonies were picked up, expanded and used for the further analyses.
FACS analysis of MESCs. We cultured CJRex-Y cells at a low density (500 cells/cm^2) on gelatin-coated 10 cm dishes in mouse ES cell medium alone, medium containing LIF, medium conditioned from wild type L cells or medium conditioned from Wnt3a-L cells (ATCC) for 5 days. The Wnt3a conditioned medium was prepared according to the provider's protocol. Cells were harvested, resuspended in mouse ES medium and subjected to FACS analysis using FACSVantage SE system (BD Biosciences).

[4] = system: canonical Wnt pathway (TCF binding sites, TopFlash); assay: TopFlash luciferase reporter assay in 293 cells; format: cell-based; settings: 293 human kidney epithelial cells; micromolar concentrations; data not shown
Description: as §1
(§2) The canonical Wnt signal occurs through binding of the Wnt protein to the Frizzled receptor at cell surface. It is followed by inactivation of GSK-3, leading to accumulation of β-catenin in the nucleus that activates the transcription of Wnt target genes in collaboration with TCFs^18,19. Alternatively, Wnt signaling can be activated by direct, intracellular inhibition of the GSK-3 function using specific inhibitors^20. […] First we examined whether mouse and human ESCs were capable of transducing Wnt signaling under the influence of 6-bromoindirubin-3′-oxime. […] We then evaluated expression of β-catenin at the cellular level as a read-out of the activation status of the canonical Wnt pathway in HESCs.

MESCs = assay: Teratoma formation from treated MESCs in syngenic mice; format: in vivo, mouse; settings: MESCs grown in 1 μM, subcutaneous injection into syngenic mice
Description: Teratoma formation. We grew CJ-GFP cells at a low density (500 cells/cm^2) on gelatin-coated 10 cm dishes in medium containing 6-bromoindirubin-3′-oxime 1 μM for 7 d, then passaged cells at the same density and cultured under the same condition another 5 d to further enforce differentiation of cells. […] 6-bromoindirubin-3′-oxime-treated cells (approximately 5×10^6 cells/mouse) were subcutaneously injected into the left flank of syngenic 129 background mice. After three to five weeks, the developed teratoma (approximately 20 mm in diameter) was excised, fixed in 4% paraformaldehyde and subjected to hematoxylin and eosin staining for histological examinations.

[5] = system: canonical Wnt pathway (TCF binding sites, TopFlash); assay: TopFlash/FopFlash luciferase reporter assay in CJ7 cells (MESCs); format: cell-based, mouse; settings: FIG. 2b
Description: as §1, §2

O=C1Nc2cc(Br)ccc2/C1=C1/Nc2ccccc2/C1=N\O [6-bromoindirubin-3′-oxime] was tested, and the Nanog transcript level [1] was “substantial level of Nanog transcripts was preserved”, the Oct-3/4 transcript level ([1]; compared to conditioned medium-treated cells) was “substantial level of the Oct-3/4 transcript was maintained” and the Rex-1 promoter activity (Rex-1 promoter [2]; CJ7 cells, compared to LIF-treated cells) was “substantial upregulation”. The “Rex-1 transcriptional activation with dominant negative TCF-3 construct” value (Rex-1 promoter [2]; cells transfected with dominant negative TCF-3) was “largely abolished”, the “Oct-3/4 expression at the cellular level” value (Oct-3/4; HESCs in non-conditioned medium, FIG. 4c) was “sustained Oct-3/4 expression” and the “Oct-3/4 expression by quantitative imaging analysis” value (Oct-3/4; versus conditioned medium treatment, data not shown) was “comparable level of Oct-3/4 expression”. For the same compound, the “colony morphology / cell shape” value (Rex-1 promoter [3]; FIG. 3b) was “more compact than those observed in LIF-treated cells”, the “Rex-1 transcriptional (YFP reporter) activity” value (Rex-1 promoter [3]; absence of LIF) was “strong transcriptional activity” and the TopFlash reporter activity [4] was “robustly upregulated the reporter activity”. The “teratoma formation, germ layer derivatives” value (MESCs) was “generated teratomas consisting of all three germ layer-derived tissues”, the TopFlash reporter activity ([5]; CJ7 cells (MESCs)) was “remarkable increase in TopFlash reporter activity in a dose-dependent manner” and the FopFlash reporter activity ([5]; CJ7 cells, non-responsive mutated binding sites) was “no substantial change in FopFlash reporter activity”.
